From publication PMC5301048, “Selection and early clinical evaluation of the brain‐penetrant 11β‐hydroxysteroid dehydrogenase type 1 (11β‐HSD1) inhibitor UE2343 (Xanamem™)” (British Journal of Pharmacology, 2017)

Key:
[1] = Plasma protein binding, human plasma; assay type: in vitro ADME
Description: Plasma protein binding was determined using pooled human plasma according to the method described in WO2011135276 (Webster et al., 2011a).

[2] = Plasma protein binding, dog plasma; assay type: in vitro ADME; conditions: mean ± SD [n]
[3] = Plasma protein binding, rat plasma; assay type: in vitro ADME; conditions: mean ± SD [n]
[4] = tested on: HPA axis hormones and steroids; experiment: Multiple ascending dose study, HPA axis hormones and steroids; assay type: in vivo; conditions: human, not significant vs placebo
Description: A double‐blind, randomized, placebo‐controlled multiple ascending dose study was carried out at Linear Clinical Research Ltd, Nedlands, Australia. Each cohort consisted of eight healthy male subjects. Each subject received UE2343 or placebo twice daily (b.i.d ) (12 hourly) in the fed state for 9 days (Day 1 to Day 9) and once on the morning of Day 10 (19 doses in total). Dose cohorts were 10, 20 and 35 mg. Dose escalation and selection was dependent upon satisfactory review of the blinded safety (up to Day 17 ± 2) and plasma pharmacokinetics (up to Day 12) data from the preceding cohort. Safety, pharmacokinetic and pharmacodynamic assessments were made at pre‐determined time‐points during each part of the study.
Laboratory evaluation of clinical safety parameters was carried out using standard validated methods. Measurement of plasma pharmacodynamic markers [adrenocorticotropic hormone (ACTH), cortisol, 4‐androstenedione, testosterone and dehydroepiandrosterone sulphate (DHEA‐s)] was carried out using commercially available kits. Each method was fully validated prior to analysis. Urinary steroid metabolites were measured according to established methods (Boonen et al., 2013). UE2343 levels in plasma, urine and CSF was determined by LC–MS/MS using fully validated methods.
The data and statistical analysis comply with the recommendations on experimental design and analysis in pharmacology (Curtis et al., 2015). Levels of probability, P < 0.05 were deemed to constitute the threshold for statistical significance. Pharmacokinetic parameters, except Tmax (time of maximum observed drug concentration), are given as mean ± coefficient of variation (CV%). Tmax is given as median ± range. For each of the pharmacodynamic parameters [ACTH, cortisol, adrenal androgens, tetrahydrocortisols (THFs)/tetrahydrocortisone (THE) ratio], the maximum % change from baseline for each subject was subjected to ANOVA. For selected data, an additional covariate factor for the baseline was also included in the ANOVA/analysis of covariance (ANCOVA) model. […]

In the case of `O=C(c1csc(-c2cn[nH]c2)c1)N1C2CCC1CC(O)(c1ncccn1)C2` (stereo not shown) [compound 4], the “Plasma protein binding (% unbound), human” value ([1]; human plasma, mean ± SD [n]) is reported as 30 ± 2 [2] % unbound, the fraction unbound ([1]; human, pooled human plasma, read-out: bound to plasma proteins (converted)) is reported as 0.3 and the “Plasma protein binding (% unbound), dog” value [2] is reported as 44 ± 0 [1] % unbound. For the same compound, the “Plasma protein binding (% unbound), rat” value [3] was 26 ± 0 [2] % unbound, the “mean maximum percentage change in ACTH (from baseline)” value (“mean maximum percentage change” below) ([4]; 10 mg b.i.d) was 222% and the “mean maximum percentage change” value ([4]; 20 mg b.i.d) was 195%. For the same compound, the “mean maximum percentage change” value ([4]; 35 mg b.i.d) was 230%.
